We go through 10 compounds from article PMC12074795, “Synthesis and biological evaluation of esterified anti-inflammatory drugs with ethylene glycol linkers: cytotoxicity, anti-inflammatory and antioxidant properties” (Royal Society Open Science, 2025).

SMILES strings stand for the structures.

Assay [1] can be described thus: ABTS radical cation scavenging (decolorization) test. The note with it: 734 nm, 30 min. Type of assay: biochemical. Here is the method: (§1) The in vitro antioxidant ability of the compounds synthesized in this work was evaluated using three different assays, including (i) the ABTS radical cation reduction-decolorization test, which uses the technique of Khan et al. consisting of the reduction of the cation radical by an antioxidant through the discoloration measured by absorption at the wavelength of 734 nm; (ii) interaction with the stable free radical DPPH, based on Bassene’s method, in which the scavenging of DPPH radicals is carried out by a colorimetric method consisting of the reduction of the DPPH radical, determined by its absorption at a wavelength of 517 nm; and (iii) the FRAP test according to the protocol of Path Canada, based on the ability of a substance to reduce Fe^3+ ions to Fe^2+ ions, which, in the presence of 1,10-phenanthroline, form a red-orange complex whose optical density can be measured at 505 nm.
The modified technique by Khan et al. was used to scavenge ABTS^+• cation radicals through a discoloration test. In this test, potassium permanganate (KMnO4) or potassium persulphate (K2S2O8) reacts with ABTS to generate a blue-green ABTS^+• radical. Antioxidants reduce this radical, leading to a measurable colour change at 734 nm, proportional to the antioxidant concentration. The antioxidant capacity is assessed by comparing the intensity reduction of ABTS colour with that of a reference antioxidant, gallic acid. Stock and dilute solutions of synthetic compounds were prepared as detailed in §3.2.5.1. Diluted concentrations were (50, 25, 12.5, 6.25, 3.125, 1.5625 and 0.78125)/Mi in mM. The ABTS solution was obtained by mixing ABTS with K2S2O8, producing an intense blue colour. The ABTS^+• radical was generated by combining equal volumes of a 4.9 mM K2S2O8 solution and a 7 mM ABTS stock solution, stored in the dark at room temperature for 15 h before use. The 7 mM ABTS stock was then diluted 20 times with distilled water. A total of 25 µl of each dilution was added to wells along with 75 µl of 0.175 mM ABTS+ solution. After 30 min of incubation in the dark at room temperature, optical densities were measured at 734 nm. Negative controls contained the ABTS reagent without synthesized compounds, while positive controls used gallic acid at the same final concentrations as the compounds. Compounds were also tested alone to assess fluorescence. The reduction of ABTS results in a blue discoloration, with lower absorbance indicating higher antioxidant activity.
(§2) The percentages of scavenging or 50% reduction were calculated using gallic acid as a standard for 100% reduction. The concentration of radical scavengers needed to neutralize 50% of free radicals, referred to as SC50, was determined using GraphPad Prism 8.0.1 software (244).

A short description of assay [2]: Ferric reducing antioxidant power (FRAP) test. The format is biochemical. The note with it: 505 nm. Here is the method:
as §1
The Fe^3+ reduction test followed Path Canada’s protocol with some modifications, assessing the reduction of Fe^3+ ions to Fe^2+ ions, which form a red-orange complex with 1,10-phenanthroline, measurable at 505 nm. The colour intensity correlates with the amount of Fe^3+ reduced. Four solutions were prepared: 1.2 mg ml^−1 of Fe^3+ solution (1.2 mg FeCl3 in 1 ml distilled H2O), 0.2% ortho-phenanthroline solution (200 mg powder in 100 ml ethanol), 2 mg ml^−1 of gallic acid solution (2 mg gallic acid in 1 ml distilled H2O) as a positive control, stock and dilute solutions of the synthesized compounds (see §3.2.5.1). In a 96-well microplate, 180 µl distilled H2O was added to the first column and 100 µl to others for dilution. Each compound solution (20 µl at 10 mg ml^−1) was mixed with 25 µl Fe^3+ solution and incubated for 15 min in the dark at room temperature. Afterwards, 50 µl ortho-phenanthroline solution was added, followed by another 15 min incubation. Optical density was measured at 505 nm using a TECAN M200 plate reader. The positive control was treated similarly to the DPPH and ABTS assays.
as §2

The mark [3] stands for this setting: first replicate, read-out: ABTS SC50(1).
Where [4] appears, read: mean of duplicate, read-out: ABTS mean SC50.
Setting [5] is: second replicate, read-out: ABTS SC50(2).
[6] abbreviates: first replicate, read-out: FRAP SC50(1).
[7] abbreviates: mean of duplicate, read-out: FRAP mean SC50.
[8] abbreviates: second replicate, read-out: FRAP SC50(2).

Consider `CC(C)Cc1ccc(C(C)C(=O)O)cc1` (centres unmarked) [Compound 1, ibuprofen, reference compound], for which the EC50 came out at 0.21 mM in assay [1] (setting [3]); 0.2 mM in assay [1] (setting [4]); 0.2 mM in assay [1] (setting [5]); 12.9 mM in assay [2] (setting [6]); 13 mM in assay [2] (setting [7]); 13.2 mM in assay [2] (setting [8]).

As for `CC(C)Cc1ccc(C(=O)OCCOC(=O)C(C)c2ccc(CC(C)C)cc2)cc1` (centres unmarked) [Compound 2, 2-((2-(4-isobutylphenyl)propanoyl)oxy)ethyl 4-isobutylbenzoate], the EC50 in assay [1] (setting [3]) was 1.67 mM; in assay [1] (setting [4]), 1.7 mM; in assay [1] (setting [5]) it was 1.73 mM; in assay [2] (setting [6]), 6.79 mM; in assay [2] (setting [7]), 6.79 mM; in assay [2] (setting [8]), 6.79 mM.

With `CC(C)Cc1ccc(C(C)C(=O)OCCO)cc1` (centres unmarked) [Compound 3, 2-hydroxyethyl 2-(4-isobutylphenyl)propanoate], the EC50 in assay [1] (setting [3]) came out at 3.7 mM; in assay [1] (setting [4]), 3.9 mM; in assay [1] (setting [5]) it was 4.11 mM; in assay [2] (setting [6]), 7.58 mM; in assay [2] (setting [7]), 7.48 mM; in assay [2] (setting [8]) it was 7.39 mM.

`CCCCCCCCCCCC(=O)OCCOC(=O)C(C)c1ccc(CC(C)C)cc1` (centres unmarked) [Compound 5a, 2-((2-(4-isobutylphenyl)propanoyl)oxy)ethyl dodecanoate]: the EC50 stood at 2.77 mM in assay [1] (setting [3]); 2.79 mM in assay [1] (setting [4]); 2.81 mM in assay [1] (setting [5]); 4.66 mM in assay [2] (setting [6]); 4.67 mM in assay [2] (setting [7]); 4.67 mM in assay [2] (setting [8]).

For the compound `O=C(OCCO)c1ccccc1O` [Compound 7, 2-hydroxyethyl 2-hydroxybenzoate], the EC50 in assay [1] (setting [3]) was 0.21 mM; in assay [1] (setting [4]), 0.21 mM; in assay [1] (setting [5]), 0.21 mM; in assay [2] (setting [6]), 11 mM; in assay [2] (setting [7]) it was 10.9 mM; in assay [2] (setting [8]), 10.9 mM.

`O=C(O)/C=C/c1ccccc1` [Compound 11, cinnamic acid, reference compound]: the EC50 was 5.83 mM in assay [1] (setting [3]); 5.91 mM in assay [1] (setting [4]); 5.98 mM in assay [1] (setting [5]); 13.8 mM in assay [2] (setting [6]); 13.7 mM in assay [2] (setting [7]); 13.6 mM in assay [2] (setting [8]).

In the case of `O=C(/C=C/c1ccccc1)OCCOC(=O)c1ccccc1O` [Compound 12, (E)-2-(cinnamoyloxy)ethyl 2-hydroxybenzoate], the EC50 in assay [1] (setting [3]) came to 3.36 mM; in assay [1] (setting [4]), 3.47 mM; in assay [1] (setting [5]), 3.6 mM; in assay [2] (setting [6]) it was 6.21 mM; in assay [2] (setting [7]) it was 6.21 mM; in assay [2] (setting [8]) it was 6.22 mM.

Regarding `O=C(OCCOC(=O)c1ccccc1O)c1ccccc1O` [Compound 13, Ethane-1,2-diyl bis(2-hydroxybenzoate)], the EC50 was 0.21 mM in assay [1] (setting [3]); 0.2 mM in assay [1] (setting [4]); 0.2 mM in assay [1] (setting [5]); 6.73 mM in assay [2] (setting [6]); 6.69 mM in assay [2] (setting [7]); 6.66 mM in assay [2] (setting [8]).

For the compound `CC(C)Cc1ccc(C(C)C(=O)OCCOC(=O)C=Cc2ccccc2)cc1` (centres unmarked) [Compound 14, 2-((2-(4-isobutylphenyl)propanoyl)oxy)ethyl cinnamate], the EC50 was found to be 0.18 mM in assay [1] (setting [3]); 0.18 mM in assay [1] (setting [4]); 0.18 mM in assay [1] (setting [5]); 7.68 mM in assay [2] (setting [6]); 7.27 mM in assay [2] (setting [8]).

Turning to `CCCCCCCCCCCC(=O)OCCOC(=O)c1ccccc1O` [DEW4a], the EC50 is 3.24 mM in assay [1] (setting [3]); 3.25 mM in assay [1] (setting [4]); 3.3 mM in assay [1] (setting [5]); 8.06 mM in assay [2] (setting [6]); 8.03 mM in assay [2] (setting [7]); 8 mM in assay [2] (setting [8]).
